Measured values as given in the supplement of paper PMC10307832.

How the values were obtained:
Assay in all cases: relative viability (nuclei count vs DMSO), 5 days (fraction); higher = more cells survive
A-427 = system: A-427
Outline: (§1)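 For relative viability, nuclei counts in treated wells were divided by those in vehicle wells. Lung cancer cell lines had been pin-tool dosed in 1536-well plates the day after seeding and cultured for 5 days, then fixed and stained in one step (final 0.05% Triton X-100, 1% formaldehyde, 1 ug/ml Hoechst) and imaged at 4×. Doses were one drug alone or a fixed anchor-drug dose plus five library-drug doses (not always all listed) in √10 steps, and values are duplicate-plate medians.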

ChaGo-K-1 = system: ChaGo-K-1
Outline: as §1

EKVX = system: EKVX
Outline: as §1

EMC-BAC-2 = system: EMC-BAC-2
Outline: as §1

H3255 = system: H3255
Outline: as §1

HCC-366 = system: HCC-366
Outline: as §1

LK-2 = system: LK-2
Outline: as §1

LOU-NH91 = system: LOU-NH91
Outline: as §1

NCI-H1666 = system: NCI-H1666
Outline: as §1

NCI-H1734 = system: NCI-H1734
Outline: as §1

NCI-H1755 = system: NCI-H1755
Outline: as §1

NCI-H1975 = system: NCI-H1975
Outline: as §1

NCI-H2170 = system: NCI-H2170
Outline: as §1

NCI-H23 = system: NCI-H23
Outline: as §1

NCI-H441 = system: NCI-H441
Outline: as §1

NCI-H596 = system: NCI-H596
Outline: as §1

PC-3 [JPC-3] = system: PC-3 [JPC-3]
Outline: as §1

SW 900 = system: SW 900
Outline: as §1

O=c1cc(N2CCOCC2)oc2c(-c3cccc4c3sc3ccccc34)cccc12 + NC(=O)Nc1cc(-c2cccc(F)c2)sc1C(=O)N[C@H]1CCCNC1 [AZD7762] (partner 0.2 µM)
relative viability (A-427; first compound 0.01 µM): 0.731 | relative viability (A-427; first compound 0.03162 µM): 0.767 | relative viability (A-427; first compound 0.1 µM): 0.529 | relative viability (A-427; first compound 0.3162 µM): 0.795 | relative viability (A-427; first compound 1 µM): 0.735 | relative viability (ChaGo-K-1; first compound 0.01 µM): 0.847 | relative viability (ChaGo-K-1; first compound 0.03162 µM): 0.898 | relative viability (ChaGo-K-1; first compound 0.1 µM): 0.6 | relative viability (ChaGo-K-1; first compound 0.3162 µM): 0.831 | relative viability (ChaGo-K-1; first compound 1 µM): 0.938 | relative viability (EKVX; first compound 0.01 µM): 0.654 | relative viability (EKVX; first compound 0.03162 µM): 0.757 | relative viability (EKVX; first compound 0.1 µM): 0.445 | relative viability (EKVX; first compound 0.3162 µM): 0.878 | relative viability (EKVX; first compound 1 µM): 0.695 | relative viability (EMC-BAC-2; first compound 0.01 µM): 1.09 | relative viability (EMC-BAC-2; first compound 0.03162 µM): 1.17 | relative viability (EMC-BAC-2; first compound 0.1 µM): 1.19 | relative viability (EMC-BAC-2; first compound 0.3162 µM): 1.14 | relative viability (EMC-BAC-2; first compound 1 µM): 1.11 | relative viability (H3255; first compound 0.01 µM): 0.901 | relative viability (H3255; first compound 0.03162 µM): 0.933 | relative viability (H3255; first compound 0.1 µM): 0.845 | relative viability (H3255; first compound 0.3162 µM): 0.822 | relative viability (H3255; first compound 1 µM): 0.852 | relative viability (HCC-366; first compound 0.01 µM): 0.247 | relative viability (HCC-366; first compound 0.03162 µM): 0.286 | relative viability (HCC-366; first compound 0.1 µM): 0.127 | relative viability (HCC-366; first compound 0.3162 µM): 0.287 | relative viability (HCC-366; first compound 1 µM): 0.288 | relative viability (LK-2; first compound 0.01 µM): 0.468 | relative viability (LK-2; first compound 0.03162 µM): 0.369 | relative viability (LK-2; first compound 0.1 µM): 0.262 | relative viability (LK-2; first compound 0.3162 µM): 0.369 | relative viability (LK-2; first compound 1 µM): 0.354 | relative viability (LOU-NH91; first compound 0.01 µM): 0.755 | relative viability (LOU-NH91; first compound 0.03162 µM): 0.785 | relative viability (LOU-NH91; first compound 0.1 µM): 0.803 | relative viability (LOU-NH91; first compound 0.3162 µM): 0.78 | relative viability (LOU-NH91; first compound 1 µM): 0.751 | relative viability (NCI-H1666; first compound 0.01 µM): 0.842 | relative viability (NCI-H1666; first compound 0.03162 µM): 0.886 | relative viability (NCI-H1666; first compound 0.1 µM): 0.797 | relative viability (NCI-H1666; first compound 0.3162 µM): 0.675 | relative viability (NCI-H1666; first compound 1 µM): 0.7 | relative viability (NCI-H1734; first compound 0.01 µM): 0.604 | relative viability (NCI-H1734; first compound 0.03162 µM): 0.568 | relative viability (NCI-H1734; first compound 0.1 µM): 0.112 | relative viability (NCI-H1734; first compound 0.3162 µM): 0.596 | relative viability (NCI-H1734; first compound 1 µM): 0.494 | relative viability (NCI-H1755; first compound 0.01 µM): 0.473 | relative viability (NCI-H1755; first compound 0.03162 µM): 0.417 | relative viability (NCI-H1755; first compound 0.1 µM): 0.427 | relative viability (NCI-H1755; first compound 0.3162 µM): 0.434 | relative viability (NCI-H1755; first compound 1 µM): 0.487 | relative viability (NCI-H1975; first compound 0.01 µM): 0.676 | relative viability (NCI-H1975; first compound 0.03162 µM): 0.735 | relative viability (NCI-H1975; first compound 0.1 µM): 0.554 | relative viability (NCI-H1975; first compound 0.3162 µM): 0.808 | relative viability (NCI-H1975; first compound 1 µM): 0.553 | relative viability (NCI-H2170; first compound 0.01 µM): 0.78 | relative viability (NCI-H2170; first compound 0.03162 µM): 0.945 | relative viability (NCI-H2170; first compound 0.1 µM): 0.734 | relative viability (NCI-H2170; first compound 0.3162 µM): 0.842 | relative viability (NCI-H2170; first compound 1 µM): 0.852 | relative viability (NCI-H23; first compound 0.01 µM): 0.306 | relative viability (NCI-H23; first compound 0.03162 µM): 0.309 | relative viability (NCI-H23; first compound 0.3162 µM): 0.307 | relative viability (NCI-H23; first compound 1 µM): 0.272 | relative viability (NCI-H441; first compound 0.01 µM): 1.06 | relative viability (NCI-H441; first compound 0.03162 µM): 1.03 | relative viability (NCI-H441; first compound 0.1 µM): 1.09 | relative viability (NCI-H441; first compound 0.3162 µM): 1.2 | relative viability (NCI-H441; first compound 1 µM): 1.01 | relative viability (NCI-H596; first compound 0.01 µM): 1.19 | relative viability (NCI-H596; first compound 0.03162 µM): 1.2 | relative viability (NCI-H596; first compound 0.1 µM): 0.75 | relative viability (NCI-H596; first compound 0.3162 µM): 1.18 | relative viability (NCI-H596; first compound 1 µM): 1.08 | relative viability (PC-3 [JPC-3]; first compound 0.01 µM): 0.65 | relative viability (PC-3 [JPC-3]; first compound 0.03162 µM): 0.855 | relative viability (PC-3 [JPC-3]; first compound 0.1 µM): 0.87 | relative viability (PC-3 [JPC-3]; first compound 0.3162 µM): 0.954 | relative viability (PC-3 [JPC-3]; first compound 1 µM): 0.834 | relative viability (SW 900; first compound 0.03162 µM): 0.748 | relative viability (SW 900; first compound 0.1 µM): 0.378 | relative viability (SW 900; first compound 0.3162 µM): 0.702 | relative viability (SW 900; first compound 1 µM): 0.497
